The source of these data is ChEMBL document CHEMBL1129005 (Bioorg Med Chem Lett, 1996).

Experiment [1] concerns the target T1, Muscarinic acetylcholine receptor M2 (Homo sapiens, UniProt P08172).
T1 sequence (P08172 whole entry): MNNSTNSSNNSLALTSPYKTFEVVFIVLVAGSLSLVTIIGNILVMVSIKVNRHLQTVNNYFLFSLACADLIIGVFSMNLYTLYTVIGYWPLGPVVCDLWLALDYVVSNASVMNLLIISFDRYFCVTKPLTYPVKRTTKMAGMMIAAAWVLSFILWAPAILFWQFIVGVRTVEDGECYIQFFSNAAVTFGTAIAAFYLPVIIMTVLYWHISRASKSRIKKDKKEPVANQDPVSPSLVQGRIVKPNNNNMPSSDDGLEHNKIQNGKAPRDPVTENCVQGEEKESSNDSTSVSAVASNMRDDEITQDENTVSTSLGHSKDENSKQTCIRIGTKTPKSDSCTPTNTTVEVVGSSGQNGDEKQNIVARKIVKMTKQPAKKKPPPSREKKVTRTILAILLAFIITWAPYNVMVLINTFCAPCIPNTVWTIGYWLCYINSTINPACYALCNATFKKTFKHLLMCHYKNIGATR
The experiment can be described thus: Compound was evaluated for displacement of [3H]-QNB from human Muscarinic m2 receptor in CHO cells. Format: cell-based. (In general: Loss of bound radioactivity is the signal in a displacement assay; it reports binding, not function.)

Experiment [2] deals with T2, Muscarinic acetylcholine receptor M1 (Homo sapiens, UniProt P11229).
T2 sequence (P11229 whole entry): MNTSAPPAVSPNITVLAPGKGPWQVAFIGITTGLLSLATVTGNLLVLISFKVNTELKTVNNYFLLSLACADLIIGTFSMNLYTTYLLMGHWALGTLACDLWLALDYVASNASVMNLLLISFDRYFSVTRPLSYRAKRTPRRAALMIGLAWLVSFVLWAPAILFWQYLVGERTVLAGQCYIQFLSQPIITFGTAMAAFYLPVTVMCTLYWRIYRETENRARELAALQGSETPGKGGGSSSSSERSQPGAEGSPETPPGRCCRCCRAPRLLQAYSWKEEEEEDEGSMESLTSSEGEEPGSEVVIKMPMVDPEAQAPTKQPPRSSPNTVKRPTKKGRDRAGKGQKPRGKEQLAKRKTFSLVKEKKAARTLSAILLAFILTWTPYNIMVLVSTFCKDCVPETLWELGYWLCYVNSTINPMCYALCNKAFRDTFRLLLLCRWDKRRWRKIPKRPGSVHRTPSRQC
The experiment is described as follows: Compound was evaluated for displacement of [3H]QNB from human Muscarinic m1 receptor in CHO cells. Format: cell-based.

Turning to `CCCN(CCC)CC1CCCCN1CCNC(=O)N1c2ccccc2C(=O)Nc2cccnc21` (stereo unspecified), the figures for the Ki in experiment [1] and in experiment [2] were 5.28 nM and 12.4 nM, respectively.
For `CC1CCN(CC(=O)N2c3ccccc3C(=O)Nc3cccnc32)CC1`, in that order: 71.2 nM and 82.4 nM.
The corresponding values for `CCN(CC)CC1CCCCN1CC(=O)N1c2ccccc2C(=O)Nc2cccnc21` (stereo unspecified) [OTENZEPAD] are 52 nM and 179 nM.
